Experimental data taken from US20240335401A1, “SUBSTITUTED PHENETHYLAMINE FOR TREATING INFLAMMATION AND PSYCHOLOGICAL DISORDERS” (SYNAPTIVE THERAPEUTICS LLC, priority 2022, published 2024).

Assays:
TNFa in circulation = assay: LPS-induced inflammatory response in mice, TNFa in circulation; format: in vivo; conditions: mice injected with LPS; subcutaneous administration; FIG. 1
Description: FIG. 1 is a graph showing the level of TNF-α in serum of mice injected with LPS to induce inflammation and administered 2C-H or control vehicle.
(§1) In another experiment, mice were also injected with a toxic level of LPS to initiate a lethal septic event, which was attenuated by administration of 2C-H (FIG. 2).

[1] = test system: mice injected with a toxic level of LPS; assay: Lethal septic event after a toxic level of LPS in mice; format: in vivo; conditions: FIG. 2
Description: FIG. 2 is a plot showing % mice that died after injection of a toxic level of LPS when administered 2C-H or vehicle control.
as §1

[2] = taken recreationally; cited from earlier work
mice [3] = assay: Signs of hallucination in mice at increasing doses; format: in vivo; conditions: oral, FIG. 3
Description: FIG. 3 is a plot of % mice showing sign of hallucination at increasing doses of 2C-B.
(§2) Mice were administered increasing amounts of 2C-B to identify sub-hallucinogenic doses (FIG. 3). It was determined that a dose of 0.025 mg/kg can be orally administered to mice without showing any signs of hallucination. Mice were then administered 2C-B for increasing amounts of time, then placed on the EPM apparatus for 5 minutes and time spent on the open arms obtained. As it can be seen in FIG. 4, the sub-hallucinogenic dose of 2C-B was capable of reducing anxiety in mice.

mice [4] = assay: EPM apparatus, time spent on the open arms (anxiety); format: in vivo; conditions: sub-hallucinogenic dose, EPM for 5 minutes, compared to saline, FIG. 4
Description: FIG. 4 is a graph showing the time spent on the open arm by mice treated with 2C-B for increasing amounts of time.
as §2

Row | SMILES | inflammatory response (measured by TNFa in circulation) (TNFa in circulation) | lethal septic event (% mice that died) [1] | threshold unit dose that can cause psychedelic activity [2] | dose that can be orally administered without showing any signs of hallucination (mice [3]) | time spent on the open arm (mice [4])
1 | COc1ccc(OC)c(CCN)c1 [2C-H] | quickly quelled | attenuated |  |  | 
2 | CCc1cc(OC)c(CCN)cc1OC [2C-E, 4-Ethyl-2,5-dimethoxyphenethylamine] |  |  | about 2 mg |  | 
3 | COc1cc(CCN)c(OC)cc1I [2C-I, 2-(4-lodo-2,5-dimethoxyphenyl)ethan-1-amine] |  |  | about 2 mg |  | 
4 | COc1cc(CCN)c(OC)cc1Br [2C-B, 4-Bromo-2,5-dimethoxyphenethylamine] |  |  | about 5 mg | 0.025 mg/kg | increased time spent on the open arm compared to saline
